Source: patent US9642860B2, “Combinations of corroles and statins” (Technion Research & Development Foundation Limited, priority 2011, dated 2017)
Each block holds one molecule with its values, some of them ahead of it.

Columns and labels:
J774.A1 macrophages = test: Cholesterol biosynthesis model: acetate incorporation into cholesterol in macrophages; format: cell-based, Murine; conditions: 24 h incubation
Source text: Accumulation of cholesterol within arterial macrophages is a step in the development of atherosclerosis (M. Aviram 2004). Statins can lower the levels of cholesterol biosynthesis in arterial macrophages. The cholesterol biosynthesis model which was employed determined the effect of various agents (pravastatin alone, fluvastatin alone, 1-Fe alone in various concentrations, 1-Fe in combination with pravastatin and 1-Fe in combination with fluvastatin) on reduction of cholesterol biosynthesis in macrophages.
Murine J774.A1 macrophages were cultured in DMEM (Dulbecco's Modified Eagle Medium) containing 5% FCS (fetal calf serum) in a humidified incubator. […] The effect of different concentrations of 1-Fe on cholesterol biosynthesis from acetate and on 1-Fe cellular uptake were determined by incubating J774.A1 macrophages for 24 h (hours) with 0, 5, 20 or 50 μM (micromolar) of 1-Fe. Intracellular corrole concentrations were then determined by a chemiluminescent method, and cholesterol biosynthesis was assayed by measuring acetate incorporation into cholesterol. […] Unesterified cholesterol spots were visualized by iodine vapor (using appropriate standard), scraped into scintillation vials and counted in a β-counter. 0.1 M (molar) NaOH (sodium hydroxide) was added to the remains of the cells, and cellular proteins were measured the following day by the Lowry method. […]

[1] = molecular target: T1, HMG-CoA reductase (HMGCR) (Homo sapiens, UniProt P04035); test: HMG-CoA reductase-catalyzed reaction inhibition (CoA byproduct by HPLC); format: biochemical; conditions: read-out: Inhibition Percent
T1 sequence (P04035 426-888 limits assumed): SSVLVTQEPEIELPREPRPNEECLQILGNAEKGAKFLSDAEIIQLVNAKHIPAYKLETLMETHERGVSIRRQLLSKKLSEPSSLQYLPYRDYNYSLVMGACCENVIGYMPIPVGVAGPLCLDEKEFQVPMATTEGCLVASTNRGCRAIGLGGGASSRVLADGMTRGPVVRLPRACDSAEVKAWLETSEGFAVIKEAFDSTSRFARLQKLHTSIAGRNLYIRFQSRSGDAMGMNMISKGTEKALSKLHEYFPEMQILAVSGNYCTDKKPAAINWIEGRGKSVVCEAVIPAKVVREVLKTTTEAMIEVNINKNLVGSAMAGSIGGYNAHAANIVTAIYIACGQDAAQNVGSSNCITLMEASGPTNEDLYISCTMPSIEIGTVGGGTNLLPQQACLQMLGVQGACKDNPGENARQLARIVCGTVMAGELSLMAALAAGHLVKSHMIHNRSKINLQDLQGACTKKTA
Experimental: The effects of 1-Fe and statins fluvastatin and pravastatin alone and in combination on mevalonic acid production were tested using the following in vitro method.
Substrates of the HMGCR catalyzed reaction, NADPH (400 μM] and HMGCR (200 μM) were mixed in activity buffer comprising 100 mM sodium phosphate buffer, 1 mM ethylenediaminetetraacetic acid (EDTA), 10 mM dithiothreitol, 2% dimethyl sulfoxide, and 1 mM magnesium sulphate, the mixture having a pH of 6.8. 1-Fe, PS, or FS (alone or as a corrole statin combination) were added to the substrate mixture at various concentrations, followed by addition of HMGCR (0.48 μM). Reactions were then incubated at 37° C. for 15 minutes, followed by injection of 80 μl (microliter) to a reverse phase GraceSmart RP18 high performance liquid chromatography column (HPLC). […] As mevalonate concentration is difficult to identify in reaction mixture because it has no absorbance in the UV range, the yield of each reaction was calculated from the amount of CoA byproduct formed in the reaction after subtracting the baseline amount of CoA present as an impurity in the commercial HMG-CoA determined by injecting the substrate mixture alone. The inhibition percentage was calculated from the yield of each reaction relative to the yield of the enzymatic reaction without the addition of inhibitor.

[2] = high dose 80 mg, over five years, compared to moderate dose statins; cited from earlier work

inhibition at 1 µM ([1]; FS 1 micromolar alone): 9%
SMILES: CC(C)n1c(/C=C/C(O)CC(O)CC(=O)O)c(-c2ccc(F)cc2)c2ccccc21 (centres unmarked) [FS, fluvastatin]
reduction of macrophage biosynthesis of cholesterol (J774.A1 macrophages; 20 μM FS alone): 25%

SMILES: CC[C@H](C)C(=O)O[C@H]1C[C@H](O)C=C2C=C[C@H](C)[C@H](CC[C@@H](O)C[C@@H](O)CC(=O)O)[C@H]21 [PS, pravastatin]
reduction of macrophage biosynthesis of cholesterol (J774.A1 macrophages; 200 μM PS alone): 10%
inhibition at 5 µM ([1]; PS 5 micromolar alone): 17%

SMILES: CC(C)c1c(C(=O)Nc2ccccc2)c(-c2ccccc2)c(-c2ccc(F)cc2)n1CC[C@@H](O)C[C@@H](O)CC(=O)O [atorvastatin]
increase in the chance of developing Type 2 diabetes [2]: 12%
